Consider 10 compounds from PubChem BioAssay (NCI).

Among the test systems are 786-0 renal; HL-60(TB) leukemia; IGROV1 ovarian; K-562 leukemia; MDA-MB-435; RPMI-8226 leukemia; COLO 205 colon; HCT-116 colon; OVCAR-4 ovarian; SNB-75 CNS.
What all share (assay): NCI tumour cell line growth inhibition, 48 h

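Following 48 hours of exposure in 96-well plates, responses at five concentrations were used to interpolate endpoints linearly. Here, GI50 denotes the concentration required for 50% inhibition of growth. Definition used: TGI = concentration required for complete inhibition of growth.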 A value given as a limit tells only on which side of the number the result lay.

`O=C(Oc1ccc(Cl)cc1)c1ccccc1Nc1ccnc(C(F)(F)F)c1`: the GI50 with 786-0 renal was 2.71 µM; with HL-60(TB) leukemia it was 6.48 µM; in the assay on IGROV1 ovarian it was 15.3 µM; with K-562 leukemia it was 3.65 µM; in the assay on MDA-MB-435 it was 2.15 µM; with RPMI-8226 leukemia it was 2.87 µM. Further, the TGI in the assay with 786-0 renal was 9.75 µM; with HL-60(TB) leukemia it was over 100 µM; in the assay with IGROV1 ovarian it was over 100 µM; with K-562 leukemia it was 87.8 µM; in the assay with MDA-MB-435 it was 4.87 µM; in the assay on RPMI-8226 leukemia it was 8.28 µM.
For the compound `O=C(Nc1ccc(Oc2ccc(Nc3nc4ccccc4s3)cc2)cc1)Nc1ccc(Cl)c(C(F)(F)F)c1`, the GI50 was 1.79 µM in the assay with 786-0 renal; 1.64 µM with COLO 205 colon; 1.31 µM in the assay on HCT-116 colon; 2.21 µM in the assay with HL-60(TB) leukemia; 1.67 µM in the assay with IGROV1 ovarian; 2.51 µM in the assay on K-562 leukemia. Further, the GI50 with MDA-MB-435 is 1.48 µM; in the assay on OVCAR-4 ovarian, 1.31 µM; with RPMI-8226 leukemia it was 1.11 µM; in the assay on SNB-75 CNS it was 1.41 µM. The TGI in the assay on 786-0 renal turned out to be 4.63 µM; with COLO 205 colon it was 3.25 µM; in the assay on HCT-116 colon it was 2.61 µM; in the assay on HL-60(TB) leukemia it was 5.59 µM; in the assay on IGROV1 ovarian, 3.62 µM; in the assay with K-562 leukemia, 14.2 µM. For the same compound, the TGI in the assay with MDA-MB-435 was determined as 3 µM; in the assay with OVCAR-4 ovarian it was 3.16 µM; with RPMI-8226 leukemia it was 4.34 µM; in the assay with SNB-75 CNS, 5.27 µM.
With `CN(C)CC1CC/C(=C\c2ccc(O)cc2)C1=O` (configuration not stated), the TGI was 4.91 µM with 786-0 renal; 3.77 µM with COLO 205 colon; 4.09 µM in the assay with HCT-116 colon; 2.91 µM in the assay on HL-60(TB) leukemia; 24.1 µM with IGROV1 ovarian; 5.76 µM with K-562 leukemia. Also, the TGI with MDA-MB-435 came to 10.8 µM; with OVCAR-4 ovarian, 18.5 µM; with RPMI-8226 leukemia, 4 µM; with SNB-75 CNS it was 25.8 µM.
On to `COc1cccc(C(=O)NC(c2ccc(C)cc2)c2cc(Cl)c3cccnc3c2O)c1` (configuration not stated), for which the GI50 with 786-0 renal was 0.725 µM; in the assay with COLO 205 colon it was 0.387 µM; in the assay on HCT-116 colon, 0.495 µM; in the assay with HL-60(TB) leukemia it was 0.427 µM; in the assay on IGROV1 ovarian it was 0.5 µM; with K-562 leukemia, 0.466 µM. The GI50 was 0.56 µM in the assay with MDA-MB-435, 0.298 µM in the assay with OVCAR-4 ovarian, 0.621 µM in the assay with RPMI-8226 leukemia and 0.326 µM in the assay with SNB-75 CNS. Moreover, the TGI is 5.5 µM in the assay with 786-0 renal; 1.86 µM in the assay with COLO 205 colon; 14.4 µM in the assay with HCT-116 colon; 2.84 µM in the assay with HL-60(TB) leukemia; 12.4 µM in the assay on IGROV1 ovarian; 54.8 µM with K-562 leukemia. Also, the TGI in the assay with MDA-MB-435 was found to be 23.7 µM; in the assay with OVCAR-4 ovarian, 10.2 µM; in the assay with RPMI-8226 leukemia, 19.1 µM; with SNB-75 CNS it was 11.9 µM.
Take `Oc1[nH]c2ccccc2c1N=Nc1nc(-c2ccc(Br)cc2)cs1`: the TGI is 35.8 µM in the assay with 786-0 renal; 79.1 µM in the assay with COLO 205 colon; over 100 µM in the assay on HCT-116 colon; 23.1 µM with IGROV1 ovarian; over 100 µM in the assay with MDA-MB-435; 38.9 µM with OVCAR-4 ovarian. Further, the TGI with SNB-75 CNS was determined as 46.6 µM.
Consider `CCCCCCCCCCCCC(O)c1ccc(C#CCCCCCCCCCO)o1` (configuration not stated), for which the GI50 was 18.9 µM with 786-0 renal; over 100 µM in the assay with COLO 205 colon; 14.4 µM in the assay on HCT-116 colon; 25.9 µM with IGROV1 ovarian; 3.73 µM with K-562 leukemia; 18.9 µM in the assay with MDA-MB-435. Moreover, the GI50 in the assay with OVCAR-4 ovarian is 45.1 µM; with RPMI-8226 leukemia it was 27.2 µM; with SNB-75 CNS it was 34.1 µM. In addition, the TGI with 786-0 renal is 34.4 µM; in the assay on COLO 205 colon, over 100 µM; in the assay on HCT-116 colon it was 27.4 µM; in the assay with IGROV1 ovarian it was 51.8 µM; with K-562 leukemia it was 22.6 µM; in the assay with MDA-MB-435, 34.3 µM. The values for the TGI in the assay on OVCAR-4 ovarian, with RPMI-8226 leukemia and with SNB-75 CNS were over 100 µM, 71.3 µM and 70.1 µM, respectively.
On to `O=C1CN(c2cccc(Cl)c2)C(=O)CN1CCN1CC(=O)N(c2cccc(Cl)c2)CC1=O`, for which the TGI with 786-0 renal, with COLO 205 colon, with HCT-116 colon, in the assay on HL-60(TB) leukemia, with IGROV1 ovarian and in the assay on MDA-MB-435 was over 100 µM throughout. Further, the TGI with OVCAR-4 ovarian, in the assay on RPMI-8226 leukemia and with SNB-75 CNS was over 100 µM throughout.
Consider `COc1cccc(C2SC(N)=Nc3c2c(C)nn3C(=O)c2ccccc2O)c1` (configuration not stated), for which the TGI in the assay on 786-0 renal, in the assay on COLO 205 colon, in the assay on HCT-116 colon, in the assay with IGROV1 ovarian, in the assay with K-562 leukemia and in the assay on MDA-MB-435 was over 10 µM throughout. Also, the figures for the TGI with OVCAR-4 ovarian, in the assay on RPMI-8226 leukemia and with SNB-75 CNS were over 8.45 µM, over 10 µM and over 10 µM, respectively.
Take `Nc1ccc(C2=NNC(=O)Cc3cc4c(cc32)OCCO4)cc1Cl`: the GI50 with 786-0 renal is 6.51 µM; in the assay on COLO 205 colon, 2.63 µM; in the assay with HCT-116 colon, 2.64 µM; with HL-60(TB) leukemia, 1.72 µM; in the assay on IGROV1 ovarian, 4.54 µM; with MDA-MB-435, 0.886 µM. In addition, the values for the GI50 in the assay with OVCAR-4 ovarian, in the assay on RPMI-8226 leukemia and in the assay with SNB-75 CNS were 35.3 µM, 7.56 µM and 2 µM, respectively. Moreover, the TGI in the assay on 786-0 renal is over 50 µM; in the assay on COLO 205 colon, 17.5 µM; in the assay with HCT-116 colon, over 50 µM; with HL-60(TB) leukemia, 12.3 µM; with IGROV1 ovarian, over 50 µM; in the assay with MDA-MB-435 it was 4.18 µM. In addition, the TGI is over 50 µM with OVCAR-4 ovarian, over 50 µM in the assay with RPMI-8226 leukemia and 27.9 µM in the assay with SNB-75 CNS.
With `CC(C)=CCC(O)C1=CC(=O)c2c(O)ccc(O)c2C1=O` (configuration not stated), the TGI was found to be 1.5 µM with 786-0 renal; 0.357 µM in the assay with COLO 205 colon; 2.6 µM with HCT-116 colon; 0.0659 µM in the assay with HL-60(TB) leukemia; 3.31 µM in the assay with IGROV1 ovarian; 0.602 µM with K-562 leukemia. The figures for the TGI in the assay on MDA-MB-435, with OVCAR-4 ovarian and in the assay on SNB-75 CNS were 2.82 µM, 4.84 µM and 11.1 µM, respectively.
